Test results taken from patent US11999755B1, “Effective anticancer drug candidate of dinuclear palladium (II) bis-dihydrozone malonyl complex” (KING FAISAL UNIVERSITY, priority 2024, dated 2024).

Assays:
[1] = tested on: HCT-116 (colon carcinoma); experiment: SRB anticancer assay, HCT-116; assay type: cell-based, human; details: for IC50: SRB stain, 48 hours at 37° C., absorbance 564 nm
Text: (§1) Investigation for the bio-reactivity of H2L and PdL, as anticancer candidates, was achieved versus well documented human cancer cell lines, as three cancers entitled HepG2, MCF-7, and HCT-116, using the simplest tool SRB (sulforhodamine-B-stain). In particular, the most popular anticancer referenced drug (vinblastine) was used in the anticancer assay (the inhibited action of the cancer cells) to compare its bio-reactivity versus that one of H2L and PdL.
(§2) With HepG-2 (Hepatocellular carcinoma), HCT-116 (colon carcinoma), and MCF7 (breast adenocarcinoma), as human cancer cell lines, the antiproliferative reactivity of H2L and PdL was studied against the growth of these cancer cells by applying a spectrometric tool. Using SRB (sulforhodamine-B-stain) was essential in the spectrometric studies at a specific wavelength (564 nm, the optimized absorption wavelength). Recording the corresponded absorbance (A) at 564 nm was accomplished using a UV/Vis. spectrophotometer, UV-1800 mode Shimadzu with a mono-cell holder. With plates of 96-multiwell model, the culture of the current human cancer cell lines of 10^4 cells per well were accomplished followed by a gentle addition of DMSO solution of H2L or PdL the cultured wells of the cancer cell lines.
(§3) The resulting mixed solution of H2L or PdL solution with the subjected cancer cell line of human in SRB was assigned in incubated isolated atmosphere for 48 hours at 37° C. The isolated atmosphere was accomplished by CO2 gas bubbling with v/v […].
(§4) The same procedure was followed with vinblastine, as vinblastine was subjected as a reference anticancer agent to compare its reactivity against that one of the studied H2L and PdL. For WI-38, as the normal human fetal lung fibroblast, the pervious procedure of the cancer cell lines was applied for H2L and PdL to evaluate their selectivity index. Using Eq. 1, below, to derive the inhibited potential of H2L or PdL against the growth of the human cancer and normal cell lines through their effective concentration in M (IC50, the half effective concentration of H2L or PdL): […]

[2] = tested on: MCF7 (breast adenocarcinoma); experiment: SRB anticancer assay, MCF-7; assay type: cell-based, human; details: for IC50: SRB stain, 48 hours at 37° C., absorbance 564 nm
Text: as §1, §2, §3, §4

[3] = tested on: HepG-2 (Hepatocellular carcinoma); experiment: SRB anticancer assay, HepG-2; assay type: cell-based, human; details: for IC50: SRB stain, 48 hours at 37° C., absorbance 564 nm
Text: as §1, §2, §3, §4

[4] = tested on: WI-38, normal human fetal lung fibroblast; experiment: SRB assay on normal cell line WI-38; assay type: cell-based; details: SRB stain, 48 hours at 37° C.
Text: as §1
as §2, with “lines. […]” for “lines.”

Row | SMILES | IC50 ([1]; Homo sapiens, HCT-116) | IC50 ([2]; Homo sapiens, MCF7) | IC50 ([3]; Homo sapiens, HepG2) | IC50 [1] | Selectivity index HCT-116 ([1]; normal WI-38 versus HCT-116) | IC50 [2] | Selectivity index MCF-7 ([2]; normal WI-38 versus MCF-7) | IC50 [3] | Selectivity index HepG-2 ([3]; normal WI-38 versus HepG-2) | IC50 [4]
1 | CC[C@]1(O)C[C@@H]2CN(CCc3c([nH]c4ccccc34)[C@@](C(=O)OC)(c3cc4c(cc3OC)N(C)[C@H]3[C@@](O)(C(=O)OC)[C@H](OC(C)=O)[C@]5(CC)C=CCN6CC[C@]43[C@@H]65)C2)C1 [Vinblastine, vinblastine, reference compound] | 13.3 ± 0.11 µM | 4.12 ± 0.14 µM | 7.5 ± 0.1 µM |  |  |  |  |  |  | 
2 | O=C(CC(=O)NN=C1C(=O)Nc2ccccc21)NN=C1C(=O)Nc2ccccc21 [H2L, malonyl dihydrazone-isatin ligand] |  |  |  | 49.6 µM | 2.71 | 43.1 µM | 3.09 | 48.6 µM | 2.77 | 133 ± 0.75 µM
